Our source for the EC50 values is US20250171457A1, “NITROGEN-CONTAINING HETEROCYCLIC COMPOUND HAVING NRF2 ACTIVATION EFFECT” (CHUGAI SEIYAKU KABUSHIKI KAISHA, priority 2022, published 2025).

By EC50 is commonly meant the midpoint of the concentration-response curve.

In this assay the test system is Nrf2 transcriptional activity (pARE-Luc reporter) in HepG2 cells. The assay is described as follows: In vitro Nrf2 transcriptional activity measurement by ARE-dependent reporter assay in HepG2 cell. It is filed as cell-based, human. Particulars: Homo sapiens; HepG2 cells transfected with pARE-Luc, 4 hours at 37° C.; luciferase activity of Example 1-54 or Example 17-23 at 3.75 μM defined as 100%. The procedure, abridged:
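Luminescence readout (Bright-Glo) after 4 h, 37° C compound exposure of HepG2 cells carrying the ARE-luciferase vector pGL4.37. Each well converted to % response versus reference compound at 3.75 μM, and EC50 derived from dose-response curves.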

`CN1CCC(N2CCN(c3cc(Cl)c(C(=O)N4COc5c(cccc5-c5ccc(C(=O)O)c(N6CCOCC6)c5)C4)c(Cl)c3)CC2)CC1` [Compound 1-63, 4-[3-[2,6-Dichloro-4-[4-(1-methylpiperidin-4-yl)piperazin-1-yl]benzoyl]-2,4-dihydro-1,3-benzoxazin-8-yl]-2-morpholin-4-ylbenzoic acid] registered an EC50 of 2.1 nM.

Take `CN1CCN(c2cc(Cl)c(C(=O)N3COc4c(cccc4-c4ccc(C(=O)O)c(N5CCOCC5)c4)C3)c(Cl)c2)CC1` [Compound 1-64, 4-[3-[2,6-Dichloro-4-(4-methylpiperazin-1-yl)benzoyl]-2,4-dihydro-1,3-benzoxazin-8-yl]-2-morpholin-4-ylbenzoic acid]: the EC50 worked out at 3 nM. This EC50 and that of the compound before are within 1.5-fold of each other.

With `O=C(O)c1ccc(-c2cccc3c2OCN(C(=O)c2c(Cl)cc(N4CCC(N5CCOCC5)CC4)cc2Cl)C3)cc1N1CCOCC1` [Compound 1-65, 4-[3-[2,6-Dichloro-4-(4-morpholin-4-ylpiperidin-1-yl)benzoyl]-2,4-dihydro-1,3-benzoxazin-8-yl]-2-morpholin-4-ylbenzoic acid], the EC50 came to 3.7 nM. The EC50 values of the last two compounds are within 1.5-fold of each other.

Compound `O=C(O)c1ccc(-c2cccc3c2OCN(C(=O)c2c(Cl)cc(N4CCN(C5COC5)CC4)cc2Cl)C3)cc1N1CCOCC1` [Compound 1-66, 4-[3-[2,6-Dichloro-4-[4-(oxetan-3-yl)piperazin-1-yl]benzoyl]-2,4-dihydro-1,3-benzoxazin-8-yl]-2-morpholin-4-ylbenzoic acid] returned an EC50 of 2.7 nM.

With `CC(C)N1CCN(c2cc(Cl)c(C(=O)N3COc4c(cccc4-c4ccc(C(=O)O)c(N5CCOCC5)c4)C3)c(Cl)c2)CC1` [Compound 1-67, 4-[3-[2,6-Dichloro-4-(4-propan-2-ylpiperazin-1-yl)benzoyl]-2,4-dihydro-1,3-benzoxazin-8-yl]-2-morpholin-4-ylbenzoic acid], it took 4.4 nM to reach a half-maximal effect (EC50).

In turn, `CN1CCN(c2cc(Cl)c(C(=O)N3CSc4c(cccc4-c4cc(N5CCOCC5)c(C(=O)O)cc4F)C3)c(Cl)c2)CC1` [Compound 1-68, 4-[3-[2,6-Dichloro-4-(4-methylpiperazin-1-yl)benzoyl]-2,4-dihydro-1,3-benzothiazin-8-yl]-5-fluoro-2-morpholin-4-ylbenzoic acid] registered an EC50 of 8.1 nM.

`COCCN1CCN(c2cc(Cl)c(C(=O)N3CSc4c(cccc4-c4cc(N5CCOCC5)c(C(=O)O)cc4F)C3)c(Cl)c2)CC1` [Compound 1-69, 4-[3-[2,6-Dichloro-4-[4-(2-methoxyethyl)piperazin-1-yl]benzoyl]-2,4-dihydro-1,3-benzothiazin-8-yl]-5-fluoro-2-morpholin-4-ylbenzoic acid] gave a 50% effective concentration (EC50) of 5.4 nM.

Turning to `O=C(O)c1cc(F)c(-c2cccc3c2OCN(C(=O)c2ccc(N4CCN(C5COC5)CC4)cc2Cl)C3)cc1N1CCOCC1` [Compound 1-70, 4-[3-[2-Chloro-4-[4-(oxetan-3-yl)piperazin-1-yl]benzoyl]-2,4-dihydro-1,3-benzoxazin-8-yl]-5-fluoro-2-morpholin-4-ylbenzoic acid], the midpoint of the response, the EC50, lay at 4.7 nM. This EC50 and that of the compound before are within 1.5-fold of each other.

On to `COC1CN(c2cc(Cl)c(C(=O)N3COc4c(cccc4-c4cc(N5C6CCC5COC6)c(C(=O)O)cc4F)C3)cc2C)C1` [Compound 1-71, 4-[3-[2-Chloro-4-(3-methoxyazetidin-1-yl)-5-methylbenzoyl]-2,4-dihydro-1,3-benzoxazin-8-yl]-5-fluoro-2-(3-oxa-8-azabicyclo[3.2.1]octan-8-yl)benzoic acid], for which the midpoint of the response, the EC50, lay at 6.1 nM.

`COc1cc(C(=O)N2COc3c(cccc3-c3cc(N4CCOCC4)c(C(=O)O)cc3F)C2)c(Cl)cc1N1CCN(C)CC1` [Compound 1-72, 4-[3-[2-Chloro-5-methoxy-4-(4-methylpiperazin-1-yl)benzoyl]-2,4-dihydro-1,3-benzoxazin-8-yl]-5-fluoro-2-morpholin-4-ylbenzoic acid]: the response was half-maximal at 5.8 nM (EC50).

In the case of `COc1cc(C(=O)N2COc3c(cccc3-c3cc(N4CCOCC4)c(C(=O)O)cc3F)C2)c(Cl)cc1N1CC2(COC2)C1` [Compound 1-73, 4-[3-[2-Chloro-5-methoxy-4-(2-oxa-6-azaspiro[3.3]heptan-6-yl)benzoyl]-2,4-dihydro-1,3-benzoxazin-8-yl]-5-fluoro-2-morpholin-4-ylbenzoic acid], the concentration for a half-maximal effect (EC50) stood at 5.1 nM.

In the case of `COc1cc(C(=O)N2COc3c(cccc3-c3cc(N4C5CCC4COC5)c(C(=O)O)cc3F)C2)c(Cl)cc1N1CC(OC)C1` [Compound 1-74, 4-[3-[2-Chloro-5-methoxy-4-(3-methoxyazetidin-1-yl)benzoyl]-2,4-dihydro-1,3-benzoxazin-8-yl]-5-fluoro-2-(3-oxa-8-azabicyclo[3.2.1]octan-8-yl)benzoic acid], the midpoint of the response, the EC50, lay at 2.7 nM.

The compound `O=C(O)c1ccc(-c2cccc3c2C(=O)NN(C(=O)c2c(Cl)cc(N4CCN(C5CC5)CC4)cc2Cl)C3)cc1N1CCOCC1` [Compound 1-75, 4-[2-[2,6-Dichloro-4-(4-cyclopropylpiperazin-1-yl)benzoyl]-4-oxo-1,3-dihydrophthalazin-5-yl]-2-morpholin-4-ylbenzoic acid] came in with an EC50 of 8 nM.

`CC(C)N1CCN(c2cc(Cl)c(C(=O)N3Cc4cccc(-c5ccc(C(=O)O)c(N6CCOCC6)c5)c4C(=O)N3)c(Cl)c2)CC1` [Compound 1-76, 4-[2-[2,6-Dichloro-4-(4-propan-2-ylpiperazin-1-yl)benzoyl]-4-oxo-1,3-dihydrophthalazin-5-yl]-2-morpholin-4-ylbenzoic acid] displayed a half-maximal effective concentration (EC50) of 5.3 nM.

Consider `O=C(O)c1ccc(-c2cccc3c2C(=O)NN(C(=O)c2c(Cl)cc(N4CCN(CC(F)(F)F)CC4)cc2Cl)C3)cc1N1CCOCC1` [Compound 1-77, 4-[2-[2,6-Dichloro-4-[4-(2,2,2-trifluoroethyl)piperazin-1-yl]benzoyl]-4-oxo-1,3-dihydrophthalazin-5-yl]-2-morpholin-4-ylbenzoic acid], for which the EC50 was 5.6 nM.

`CN1CCN(c2cc(Cl)c(C(=O)N3COc4c(-c5cc(N6CCOCC6)c(C(=O)O)cc5F)ccc(F)c4C3)c(Cl)c2)CC1` [Compound 1-78, 4-[3-[2,6-Dichloro-4-(4-methylpiperazin-1-yl)benzoyl]-5-fluoro-2,4-dihydro-1,3-benzoxazin-8-yl]-5-fluoro-2-morpholin-4-ylbenzoic acid]: the response was half-maximal at 15 nM (EC50).

Turning to `COCCN1CCN(c2cc(Cl)c(C(=O)N3COc4c(ccc(F)c4-c4ccc(C(=O)O)c(N5CCOCC5)c4)C3)c(Cl)c2)CC1` [Compound 1-79, 4-[3-[2,6-Dichloro-4-[4-(2-methoxyethyl)piperazin-1-yl]benzoyl]-7-fluoro-2,4-dihydro-1,3-benzoxazin-8-yl]-2-morpholin-4-ylbenzoic acid], the EC50 amounted to 3.6 nM.

As to `CN1CCN(c2cc(Cl)c(C(=O)N3COc4c(ccc(F)c4-c4cc(N5CCOCC5)c(C(=O)O)cc4F)C3)c(Cl)c2)CC1` [Compound 1-80, 4-[3-[2,6-Dichloro-4-(4-methylpiperazin-1-yl)benzoyl]-7-fluoro-2,4-dihydro-1,3-benzoxazin-8-yl]-5-fluoro-2-morpholin-4-ylbenzoic acid], the EC50 was determined as 1.9 nM.

`COCCN1CCN(c2cc(Cl)c(C(=O)N3COc4c(ccc(F)c4-c4cc(N5CCOCC5)c(C(=O)O)cc4F)C3)c(Cl)c2)CC1` [Compound 1-81, 4-[3-[2,6-Dichloro-4-[4-(2-methoxyethyl)piperazin-1-yl]benzoyl]-7-fluoro-2,4-dihydro-1,3-benzoxazin-8-yl]-5-fluoro-2-morpholin-4-ylbenzoic acid]: the response was half-maximal at 5.1 nM (EC50).

Consider `O=C(O)c1cc(F)c(-c2c(F)ccc3c2OCN(C(=O)c2c(Cl)cc(N4CCN(C5COC5)CC4)cc2Cl)C3)cc1N1CCOCC1` [Compound 1-82, 4-[3-[2,6-Dichloro-4-[4-(oxetan-3-yl)piperazin-1-yl]benzoyl]-7-fluoro-2,4-dihydro-1,3-benzoxazin-8-yl]-5-fluoro-2-morpholin-4-ylbenzoic acid], for which the EC50 turned out to be 3.5 nM.

The compound `C[C@@H]1[C@@H](N2CCOCC2)CN1c1cc(Cl)c(C(=O)N2COc3c(cccc3-c3cc(N4C5CCC4COC5)c(C(=O)O)cc3F)C2)c(Cl)c1` [Compound 1-84, 4-[3-[2,6-Dichloro-4-[(2R,3S)-2-methyl-3-morpholin-4-ylazetidin-1-yl]benzoyl]-2,4-dihydro-1,3-benzoxazin-8-yl]-5-fluoro-2-(3-oxa-8-azabicyclo[3.2.1]octan-8-yl)benzoic acid] displayed an EC50 of 2.4 nM. The EC50 values of the last two compounds are within 1.5-fold of each other.

`C[C@@H]1[C@H](N2CCOCC2)CN1c1cc(Cl)c(C(=O)N2COc3c(cccc3-c3cc(N4C5CCC4COC5)c(C(=O)O)cc3F)C2)c(Cl)c1` [Compound 1-85, 4-[3-[2,6-Dichloro-4-[(2R,3R)-2-methyl-3-morpholin-4-ylazetidin-1-yl]benzoyl]-2,4-dihydro-1,3-benzoxazin-8-yl]-5-fluoro-2-(3-oxa-8-azabicyclo[3.2.1]octan-8-yl)benzoic acid] registered an EC50 of 0.9 nM.

Compound `COc1cc(-c2cc(Cl)c(C(=O)N3COc4c(cccc4-c4cc(N5C6CCC5COC6)c(C(=O)O)cc4F)C3)c(Cl)c2)ccn1` [Compound 2-1, 4-[3-[2,6-Dichloro-4-(2-methoxypyridin-4-yl)benzoyl]-2,4-dihydro-1,3-benzoxazin-8-yl]-5-fluoro-2-(3-oxa-8-azabicyclo[3.2.1]octan-8-yl)benzoic acid] had an EC50 of 6.2 nM.

Compound `CN1CC=C(c2cc(Cl)c(C(=O)N3COc4c(cccc4-c4cc(N5CCOCC5)c(C(=O)O)cc4F)C3)c(Cl)c2)CC1` [Compound 2-3, 4-[3-[2,6-Dichloro-4-(1-methyl-3,6-dihydro-2H-pyridin-4-yl)benzoyl]-2,4-dihydro-1,3-benzoxazin-8-yl]-5-fluoro-2-morpholin-4-ylbenzoic acid] came in with an EC50 of 1.4 nM. Against the preceding compound, the EC50 is about 4.4-fold lower.

In the case of `O=C(O)c1ccc(-c2cccc3c2OCN(C(=O)c2c(Cl)cc(-c4ccncc4)cc2Cl)C3)cc1N1CCOCC1` [Compound 2-4, 4-[3-(2,6-Dichloro-4-pyridin-4-ylbenzoyl)-2,4-dihydro-1,3-benzoxazin-8-yl]-2-morpholin-4-ylbenzoic acid], the EC50 amounted to 5.7 nM.
